Experiment [1] deals with T1, PRMT5/MEP50-MTA protein complex (Homo sapiens, UniProt O14744).
T1 construct: purchased Viva Biotech
Kind of experiment: Thermal shift assay: thermal stability (melting temperature) of PRMT5/MEP50-MTA protein complex. The class given is binding. The note with it: final compound concentration 8 µM; 2 µM PRMT5/MEP50, 2 µM MTA; Tm minus Tm of DMSO vehicle control. The source says:
Test Example 1: Determination of the ability of the compounds of the present invention to improve the thermal stability (melting temperature) of the PRMT5/MEP50-MTA protein complex.
1 Experimental objective: The objective of this test example is to determine the ability of the compound to improve the thermal stability of the PRMT5/MEP50-MTA protein complex, resulting in an increase in the protein melting temperature. 2 Experimental instruments: Quantitative PCR instrument (Quantstudio6 Flex) was purchased from Life Technologies; pipettes were purchased from Eppendorf or Rainin. 3 Experimental reagents and consumables: PRMT5/MEP50 protein was prepared by Viva Biotech; HEPES was purchased from Thermo Fisher Scientific (Cat. No. 15630080); DTT was purchased from Sigma (Cat. No. 43816-10ml); sodium chloride was purchased from Invitrogen (Cat. No. AM9760G); Protein Thermal Shift™ Dye Kit was purchased from Thermo Fisher Scientific (Cat. No. 4461146); methylthioadenosine (MTA) was purchased from Sigma (Cat. No. D5011). 4 Experimental method: In this experiment, the thermal shift method was used to measure the change in the melting temperature (Tm) of the PRMT5/MEP50-MTA protein complex before and after compound binding, thereby characterising the ability of the compound to improve the thermal stability of the PRMT5/MEP50-MTA protein complex. A solution containing 50 mM HEPES, 10 mM DTT, 2 µM MTA, SYPRO Orange and 250 mM NaCl was prepared as the experimental buffer. Human PRMT5/MEP50 protein was added to a final concentration of 2 µM, and the mixture was incubated at room temperature for 30 minutes. The above reaction mixture was aliquoted into 8-strip PCR tubes at 19.5 µL per tube. Then 0.5 µL of test compound or DMSO was added to each tube, providing a total reaction volume of 20 µL and a final compound concentration of 8 µM. 2.5% DMSO was set as the vehicle control. After incubation at room temperature for 10 minutes, the PCR tubes were placed in a PCR instrument, and the melt curve function was selected to measure the melting temperature of the PRMT5/MEP50-MTA protein complex in different treatment groups (heated from 25°C to 95°C, 0.03°C/s). 5 Experimental data processing method: The experimental data files from the PCR instrument were imported into the thermal shift software to obtain the melting temperature (Tm) for each treatment group.

The next experiment concerns HCT116 wild-type cells. Kind of experiment: Cell proliferation inhibition (CellTiter-Glo), HCT116 wild-type cells. The class given is cell-based. The note with it: Homo sapiens. The source says: (§1) Test Example 2: Determination of the inhibitory effect of the compounds of the present invention on the proliferation activity of HCT116 and MTAP Knockout HCT116 cells.
(§2) 1 Experimental objective: The objective of this test example is to determine the inhibitory effect of the compound on the proliferation activity of HCT116 wild-type and HCT116 MTAP knockout cells. 2 Experimental instruments: Centrifuge (Eppendorf 5810R); microplate reader (BioTek Synergy H1 or PerkinElmer Envision); pipette (Eppendorf or Rainin). 3 Experimental reagents: HCT116 and MTAP Knockout HCT116 cells were purchased from Nanjing Cobioer; Cell Titer-Glo was purchased from Promega (Cat. No. G7573); McCoy'5A was purchased from Gibco (Cat. No. 12330031); FBS was purchased from Gibco (Cat. No. 10091148); PBS was purchased from Gibco (Cat. No. 10010023); trypsin was purchased from Gibco (Cat. No. 25200056); cell culture plates were purchased from Corning (Cat. No. 3610). 4 Experimental method: HCT116 and MTAP Knockout HCT116 cells were cultured in McCoy'5A medium containing 10% FBS until an appropriate cell density was reached. The cells were then collected and adjusted to a suitable concentration using complete medium. The cell suspension was seeded into a 96-well plate at 90 µL per well and allowed to adhere overnight in a 37°C, 5% CO2 incubator. Compound solutions of various concentrations were prepared using DMSO and culture medium, with a vehicle control set. The compound solutions were added to the 96-well plate at 10 µL per well, and the plate was incubated in a 37°C, 5% CO2 incubator for an additional 72-240 hours. After incubation, CellTiter-Glo solution was added, and the mixture was mixed uniformly by shaking, followed by incubation in the dark for 10 to 30 minutes. Luminescence was measured using a Synergy H1 or Envision microplate reader. 5 Experimental data processing method: The inhibition rate was calculated using the luminescence signal values, and the concentrations along with the inhibition rates were subjected to non-linear regression curve fitting using Graphpad Prism software to obtain the IC50 values.
Background: Cellular ATP, detected with luciferase, serves as a proxy for viable cell number.

Experiment [2] deals with MTAP Knockout HCT116 cells. Kind of experiment: Cell proliferation inhibition (CellTiter-Glo), HCT116 MTAP knockout cells. The class given is cell-based. The note with it: for Selectivity: HCT116 IC50 versus MTAP Knockout HCT116 IC50; for IC50: Homo sapiens.
Source text: as §1, §2

Where [3] appears, read: HCT-116, read-out: MTAP Knockout HCT116 IC50.
The mark [4] stands for this setting: HCT-116, HCT116 wild-type cells, proliferation inhibition, Cell Titer-Glo, read-out: HCT116 IC50.
The mark [5] stands for this setting: HCT-116, MTAP Knockout HCT116 cells, proliferation inhibition, Cell Titer-Glo, read-out: MTAP Knockout HCT116 IC50.

Where two headings read alike, the source gives them in different places.

T1 sequence (O14744 whole entry): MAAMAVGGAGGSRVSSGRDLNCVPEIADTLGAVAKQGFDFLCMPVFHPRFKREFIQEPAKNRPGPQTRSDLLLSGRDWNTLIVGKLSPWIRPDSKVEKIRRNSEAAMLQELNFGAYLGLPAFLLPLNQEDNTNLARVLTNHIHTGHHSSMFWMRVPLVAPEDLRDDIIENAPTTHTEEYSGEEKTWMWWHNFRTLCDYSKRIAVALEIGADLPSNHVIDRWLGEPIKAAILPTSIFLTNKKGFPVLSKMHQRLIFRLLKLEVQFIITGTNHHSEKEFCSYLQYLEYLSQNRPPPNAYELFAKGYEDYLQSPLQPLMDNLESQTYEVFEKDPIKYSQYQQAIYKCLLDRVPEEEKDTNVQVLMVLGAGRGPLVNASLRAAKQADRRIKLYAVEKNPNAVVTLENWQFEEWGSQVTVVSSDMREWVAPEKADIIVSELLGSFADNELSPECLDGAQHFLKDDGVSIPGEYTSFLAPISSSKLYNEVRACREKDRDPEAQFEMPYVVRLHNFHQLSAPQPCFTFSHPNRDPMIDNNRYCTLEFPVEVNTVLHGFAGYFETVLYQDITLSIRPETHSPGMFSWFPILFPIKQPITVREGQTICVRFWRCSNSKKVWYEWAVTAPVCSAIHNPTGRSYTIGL
T1 sequence (Q9BQA1 whole entry partner): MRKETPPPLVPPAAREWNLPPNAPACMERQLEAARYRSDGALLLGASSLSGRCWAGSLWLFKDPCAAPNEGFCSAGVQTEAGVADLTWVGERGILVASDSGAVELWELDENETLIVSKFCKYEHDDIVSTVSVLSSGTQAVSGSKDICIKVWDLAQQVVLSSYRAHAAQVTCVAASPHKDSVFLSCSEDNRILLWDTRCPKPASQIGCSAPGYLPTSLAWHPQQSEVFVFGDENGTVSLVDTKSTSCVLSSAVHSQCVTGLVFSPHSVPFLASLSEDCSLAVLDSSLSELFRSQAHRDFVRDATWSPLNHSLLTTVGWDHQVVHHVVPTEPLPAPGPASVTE

With `CC1CCCN(Cc2ccc(C(F)(F)F)cn2)C(=O)c2cc3c(cc2C1)nc(N)c1cncn13` (racemic) [Example 514, 4-Amino-8-methyl-12-((5-(trifluoromethyl)pyridin-2-yl)methyl)-7,8,9,10,11,12-hexahydro-13H-azo[4,3-g]imidazo[1,5-a]quinoxalin-13-one], the ΔTm at 8 µM in experiment [1] worked out at 10.9 °C. Besides, the IC50 in the experiment on HCT116 wild-type cells (HCT-116, read-out: HCT116 IC50) is 807 nM; in experiment [2] (setting [3]), 15 nM. Further, the Selectivity in experiment [2] is reported as 55.

Regarding `CC(c1ccc(C(F)(F)F)cn1)N1CC/C=C\c2cc3nc(N)c4cncn4c3cc2C1=O` (single isomer, unassigned) [Example 313-P1], the thermal shift (ΔTm) at 8 µM in experiment [1] turned out to be 11.1 °C. The IC50 in the experiment on HCT116 wild-type cells (setting [4]) came to 1020 nM; in experiment [2] (setting [5]), 17 nM. Further, the Selectivity in experiment [2] is on record as 59.

On to `Nc1nc2cc3c(cc2n2cncc12)C(=O)N([C@@H]1COc2cc(C(F)(F)F)ccc21)CCC/C=C\3` (stereo in doubt) [Example 164-P1, rel-(R, Z)-4-amino-12-(6-(trifluoromethyl)-2,3-dihydrobenzofuran-3-yl)-9,10,11,12-tetrahydro-13H-azo[4,3-g]imidazo[1,5-a]quinoxalin-13-one], for which the shift in melting temperature (ΔTm) at 8 µM in experiment [1] worked out at 11.2 °C. Besides, the IC50 with HCT116 wild-type cells (setting [4]) stood at 556 nM; in experiment [2] (setting [5]), 14 nM. The Selectivity in experiment [2] is 40.

Take `NC1=NC2C=C3CCCCCN(Cc4ccc(C(F)(F)F)cn4)C(=O)C3=CC2n2cncc21` (centres unmarked) [Example 77, 4-Amino-12-((5-(trifluoromethyl)pyridin-2-yl)methyl)-5a,7,8,9,10,11,12,14a-octahydro-13H-azonino[4,3-g]imidazo[1,5-a]quinoxalin-13-one]: in experiment [1], the ΔTm at 8 µM was found to be 11 °C. Also, the 50% inhibitory concentration (IC50) in the experiment on HCT116 wild-type cells (setting [4]) came to 236 nM; in experiment [2] (setting [5]) it was 12 nM. Also, the Selectivity in experiment [2] turned out to be 20.

For `Nc1nc2cc3c(cc2n2cncc12)C(=O)N(C1COCc2nc(C(F)(F)F)ccc21)CC/C=C\3` (centres unmarked) [Example 157, (Z)-4-Amino-11-(2-(trifluoromethyl)-5,8-dihydro-6H-pyrano[3,4-b]pyridin-5-yl)-10,11-dihydroazocino[4,3-g]imidazo[1,5-a]quinoxalin-12(9H)-one], the shift in melting temperature (ΔTm) at 8 µM in experiment [1] came out at 11.1 °C. The half-maximal inhibitory concentration (IC50) came to 1740 nM in the experiment with HCT116 wild-type cells (setting [4]) and 23 nM in experiment [2] (setting [5]). Also, the Selectivity in experiment [2] came to 77.

Turning to `Nc1nc2cc3c(cc2c2c1COC2)C(=O)N(Cc1ccc(C(F)(F)F)cn1)CCC/C=C\3` [Example 173, (Z)-4-Amino-12-((5-(trifluoromethyl)pyridin-2-yl)methyl)-1,3,9,10,11,12-hexahydro-13H-azo[3,4-g]furo[3,4-c]quinolin-13-one], in experiment [1], the ΔTm at 8 µM is 11.6 °C. The half-maximal inhibitory concentration (IC50) worked out at 279 nM in the experiment with HCT116 wild-type cells (setting [4]) and 3.5 nM in experiment [2] (setting [5]). The Selectivity in experiment [2] is 80.

On to `CC1CCN(Cc2ccc(C(F)(F)F)cn2)C(=O)c2cc3c(cc2CO1)nc(N)c1cncn13` (centres unmarked) [Example 177, 4-Amino-9-methyl-12-((5-(trifluoromethyl)pyridin-2-yl)methyl)-9,10,11,12-tetrahydroimidazo[1,5-a][1,5]oxazolo[8,7-g]quinoxalin-13(7H)-one], for which the shift in melting temperature (ΔTm) at 8 µM in experiment [1] is 11.2 °C. Besides, the IC50 with HCT116 wild-type cells (HCT-116, read-out: HCT116 IC50) was found to be 1510 nM; in experiment [2] (setting [3]), 18 nM. The Selectivity in experiment [2] was 84.

For `CC1OCc2c1c(N)nc1cc3c(cc21)C(=O)N(Cc1ccc(C(F)(F)F)cn1)CCCOC3` (centres unmarked) [Example 184, 4-Amino-3-methyl-12-((5-(trifluoromethyl)pyridin-2-yl)methyl)-3,7,9,10,11,12-hexahydrofuro[3,4-c][1,5]oxazolo [7,8-g]quinoxalin-13(1H)-one], the ΔTm at 8 µM in experiment [1] is 11.1 °C. The IC50 with HCT116 wild-type cells (HCT-116, read-out: HCT116 IC50) was found to be 2290 nM; in experiment [2] (setting [3]), 21 nM. Also, the Selectivity in experiment [2] was determined as 108.

For `Cn1ncc2c(N)nc3cc4c(cc3c21)C(=O)N(Cc1ccc(C(F)(F)F)cn1)CCCOC4` [Example 190, 4-Amino-1-methyl-12-((5-(trifluoromethyl)pyridin-2-yl)methyl)-1,7,9,10,11,12-hexahydro-13H-[1,5]oxazolo[7,8-g]pyrazolo[4,3-c]quinolin-13-one], the thermal shift (ΔTm) at 8 µM in experiment [1] was found to be 12.2 °C. Further, the IC50 in the experiment with HCT116 wild-type cells (HCT-116, read-out: HCT116 IC50) came to 763 nM; in experiment [2] (setting [3]), 6.2 nM. In experiment [2], the Selectivity turned out to be 123.

As for `Nc1nc2cc3c(cc2n2cncc12)C(=O)N(Cc1ccc(S(F)(F)(F)(F)F)cc1)CCCOC3` [Example 214, 4-Amino-12-(4-(pentafluoro-λ^6-sulphanyl)benzyl)-9,10,11,12-tetrahydroimidazo[1,5-a][1,5]oxazonino[8,7-g]quinoxalin-13(7H)-one], the ΔTm at 8 µM in experiment [1] was 12.3 °C. The IC50 turned out to be 106 nM in the experiment with HCT116 wild-type cells (setting [4]) and 5.3 nM in experiment [2] (setting [5]). Further, the Selectivity in experiment [2] stood at 20.

As to `Cn1ncc2c(N)nc3cc4c(cc3c21)C(=O)N(C1COc2cc(C(F)(F)F)ccc21)CCCOC4` (centres unmarked) [Example 270, 4-Amino-1-methyl-12-(6-(trifluoromethyl)-2,3-dihydrobenzofuran-3-yl)-1,7,9,10,11,12-hexahydro-13H-[1,5]oxazonino[7,8-g]pyrazolo[4,3-c]quinolin-13-one], the ΔTm at 8 µM in experiment [1] came to 10.8 °C. Moreover, the 50% inhibitory concentration (IC50) is 2450 nM in the experiment on HCT116 wild-type cells (HCT-116, read-out: HCT116 IC50) and 17 nM in experiment [2] (setting [3]). In addition, the Selectivity in experiment [2] worked out at 147.

Regarding `Nc1nc2cc3c(cc2n2cncc12)C(=O)N(Cc1ccc(C(F)(F)F)nn1)CC/C=C\3` [Example 418, (Z)-4-Amino-12-(6-(trifluoromethyl)pyridazin-3-yl)methyl-9,10,11,12-tetrahydro-13H-azocino[4,3-g]imidazo[1,5-a]quinoxalin-13-one], in experiment [1], the shift in melting temperature (ΔTm) at 8 µM amounted to 11.5 °C. For the same compound, the IC50 in the experiment with HCT116 wild-type cells (HCT-116, read-out: HCT116 IC50) worked out at 1090 nM; in experiment [2] (setting [3]), 20 nM. Also, the Selectivity in experiment [2] is on record as 54.

Take `Nc1nc2cc3c(cc2n2cncc12)C(=O)N(Cc1ccc(-c2c(F)cncc2F)cn1)CCC/C=C\3` [Example 419, (Z)-4-Amino-12-(3',5'-difluoro-[3,4'-bipyridin]-6-yl)methyl-9,10,11,12-tetrahydro-13H-azonino[4,3-g]imidazo[1,5-a]quinoxalin-13-one]: the thermal shift (ΔTm) at 8 µM in experiment [1] was determined as 12.7 °C. Moreover, the half-inhibitory concentration (IC50) came out at 51 nM in the experiment with HCT116 wild-type cells (setting [4]) and 3.6 nM in experiment [2] (setting [5]). Moreover, the Selectivity in experiment [2] was determined as 14.

Regarding `Cn1ncc2c(N)nc3cc4c(cc3c21)C(=O)N(Cc1ccc(-c2c(F)cccc2F)cn1)CCCOC4` [Example 427, 4-Amino-12-((5-(2,6-difluorophenyl)pyridin-2-yl)methyl)-1-methyl-1,7,9,10,11,12-hexahydro-13H-[1,5]oxazolo[7,8-g]pyrazolo[4,3-c]quinolin-13-one], in experiment [1], the ΔTm at 8 µM is 13.7 °C. Besides, the IC50 in the experiment with HCT116 wild-type cells (HCT-116, read-out: HCT116 IC50) was found to be 27 nM; in experiment [2] (setting [3]), 0.9 nM. Also, the Selectivity in experiment [2] turned out to be 30.

Broadly, the ΔTm is the shift of the melting midpoint relative to a reference. Broadly, the IC50 is the concentration at which inhibition is half-maximal.
